From ChEMBL document CHEMBL4706629, “New derivatives of 4'-phenyl-2,2':6',2″-terpyridine as promising anticancer agents” (Eur J Med Chem, 2021)
Activity calls are given as the source filed them. The calls are words filed in the database; no cut-off is given here.

Key:
MCF7 [1] = assay: Cytotoxicity against human MCF7 cells assessed as reduction in cell viability measured after 72 hrs by MTS assay; assay type: functional, cell-based; details: MCF7, 72 h
HCT-116 = assay: Cytotoxicity against human HCT-116 cells assessed as reduction in cell viability measured after 72 hrs by MTS assay; assay type: functional, cell-based; details: HCT-116, 72 h
U-251 = assay: Cytotoxicity against human U-251 cells assessed as reduction in cell viability measured after 72 hrs by MTS assay; assay type: functional, cell-based; details: U-251, 72 h
PANC-1 [2] = assay: Cell cycle arrest in human PANC-1 cells assessed as increase in accumulation at G0/G1-phase measured after 24 hrs by muse cell analyser; assay type: functional, cell-based
PANC-1 [3] = assay: Cell cycle arrest in human PANC-1 cells assessed as accumulation at G0/G1-phase at 5 uM measured after 24 hrs by muse cell analyser (reference value: 48.28 to 48.7%); assay type: functional
PANC-1 [4] = assay: Cell cycle arrest in human PANC-1 cells assessed as accumulation at S-phase at 5 uM measured after 24 hrs by muse cell analyser (reference value: 14.3 to 14.9%); assay type: functional
PANC-1 [5] = assay: Cell cycle arrest in human PANC-1 cells assessed as accumulation at G2/M-phase at 5 uM measured after 24 hrs by muse cell analyser (reference value: 36.3 to 36.88%); assay type: functional
PANC-1 [6] = assay: Cell cycle arrest in human PANC-1 cells assessed as accumulation at G0/G1-phase at 7.5 uM measured after 24 hrs by muse cell analyser (reference value: 48.28 to 48.7%); assay type: functional
PANC-1 [7] = assay: Cell cycle arrest in human PANC-1 cells assessed as accumulation at S-phase at 7.5 uM measured after 24 hrs by muse cell analyser (reference value: 14.3 to 14.9%); assay type: functional
PANC-1 [8] = assay: Cell cycle arrest in human PANC-1 cells assessed as accumulation at G2/M-phase at 7.5 uM measured after 24 hrs by muse cell analyser (reference value: 36.3 to 36.88%); assay type: functional
MCF7 [9] = assay: Cell cycle arrest in human MCF7 cells assessed as accumulation at G0/G1-phase at 5 uM measured after 24 hrs by muse cell analyser (reference value: 52.65 to 53.3%); assay type: functional
MCF7 [10] = assay: Cell cycle arrest in human MCF7 cells assessed as accumulation at S-phase at 5 uM measured after 24 hrs by muse cell analyser (reference value: 9.9 to 11.66%); assay type: functional
MCF7 [11] = assay: Cell cycle arrest in human MCF7 cells assessed as accumulation at G2/M-phase at 5 uM measured after 24 hrs by muse cell analyser (reference value: 30.92 to 33.6%); assay type: functional
MCF7 [12] = assay: Cell cycle arrest in human MCF7 cells assessed as accumulation at S-phase at 7.5 uM measured after 24 hrs by muse cell analyser (reference value: 9.9 to 11.66%); assay type: functional
MCF7 [13] = assay: Cell cycle arrest in human MCF7 cells assessed as accumulation at G2/M-phase at 7.5 uM measured after 24 hrs by muse cell analyser (reference value: 30.92 to 33.6%); assay type: functional
PANC-1 [14] = assay: Induction of apoptosis in human PANC-1 cells measured after 48 hrs by Annexin V and dead cell kit analysis; assay type: functional, cell-based; details: dose 5-7.5 µM
MCF7 [15] = assay: Induction of apoptosis in human MCF7 cells measured after 48 hrs by Annexin V and dead cell kit analysis; assay type: functional, cell-based; details: dose 5-7.5 µM
PANC-1 [16] = assay: Induction of apoptosis in human PANC-1 cells assessed as viable cells at 5 uM measured after 48 hrs by Annexin V and dead cell kit analysis (reference value: 85.6%); assay type: functional; details: read-out: Activity
PANC-1 [17] = assay: Induction of apoptosis in human PANC-1 cells assessed as early apoptotic cells at 5 uM measured after 48 hrs by Annexin V and dead cell kit analysis (reference value: 10.95%); assay type: functional
PANC-1 [18] = assay: Induction of apoptosis in human PANC-1 cells assessed as viable cells at 7.5 uM measured after 48 hrs by Annexin V and dead cell kit analysis (reference value: 85.6%); assay type: functional; details: read-out: Activity
PANC-1 [19] = assay: Induction of apoptosis in human PANC-1 cells assessed as late apoptotic cells at 7.5 uM measured after 48 hrs by Annexin V and dead cell kit analysis (reference value: 2.4%); assay type: functional
PANC-1 [20] = assay: Induction of apoptosis in human PANC-1 cells assessed as necrotic cells at 7.5 uM measured after 48 hrs by Annexin V and dead cell kit analysis (reference value: 1.05%); assay type: functional
MCF7 [21] = assay: Induction of apoptosis in human MCF7 cells assessed as viable cells at 5 uM measured after 48 hrs by Annexin V and dead cell kit analysis (reference value: 97.4%); assay type: functional; details: read-out: Activity
MCF7 [22] = assay: Induction of apoptosis in human MCF7 cells assessed as early apoptotic cells at 5 uM measured after 48 hrs by Annexin V and dead cell kit analysis (reference value: 0.65%); assay type: functional
MCF7 [23] = assay: Induction of apoptosis in human MCF7 cells assessed as necrotic cells at 5 uM measured after 48 hrs by Annexin V and dead cell kit analysis (reference value: 0.5%); assay type: functional
MCF7 [24] = assay: Induction of apoptosis in human MCF7 cells assessed as viable cells at 7.5 uM measured after 48 hrs by Annexin V and dead cell kit analysis (reference value: 97.4%); assay type: functional; details: read-out: Activity
MCF7 [25] = assay: Induction of apoptosis in human MCF7 cells assessed as late apoptotic cells at 7.5 uM measured after 48 hrs by Annexin V and dead cell kit analysis (reference value: 1.45%); assay type: functional
MCF7 [26] = assay: Induction of apoptosis in human MCF7 cells assessed as necrotic cells at 7.5 uM measured after 48 hrs by Annexin V and dead cell kit analysis (reference value: 0.5%); assay type: functional
MCF7 [27] = assay: Induction of reactive oxygen species generation in human MCF7 cells at 1 uM measured after 24 hrs by cellrox-green reagent based assay relative to control; assay type: functional
PANC-1 [28] = assay: Induction of reactive oxygen species generation in human PANC-1 cells at 1 uM measured after 12 hrs by cellrox-green reagent based assay; assay type: functional, cell-based
PANC-1 [29] = assay: Down regulation of p21 expression in human PANC-1 cells at 5 uM measured after 24 hrs by Western blot analysis; assay type: functional, cell-based
MCF7 [30] = assay: Down regulation of cyclin E1 expression in human MCF7 cells at 1 uM measured after 24 hrs by Western blot analysis; assay type: functional, cell-based
PANC-1 [31] = assay: Down regulation of cyclin E1 expression in human PANC-1 cells at 0.5 to 5 uM measured after 24 hrs by Western blot analysis; assay type: functional, cell-based; details: dose 0.5-5 µM
MCF7 [32] = assay: Effect on cdc2 expression in human MCF7 cells at 1 to 5 uM measured after 24 hrs by Western blot analysis; assay type: functional, cell-based; details: dose 1-5 µM
[33] = Up regulation of HIF1 expression in human MCF7 cells at 1 to 5 uM measured after 24 hrs by Western blot analysis relative to control; assay type: functional; details: dose 1-5 µM
[34] = Up regulation of HIF1 expression in human PANC-1 cells at 0.5 to 5 uM measured after 24 hrs by Western blot analysis relative to control; assay type: functional; details: dose 0.5-5 µM
DNA [35] = assay: Induction of Escherichia coli supercoiled pUC19 plasmid DNA cleavage assessed as increase in open circular form of a plasmid at 25 uM incubated for 60 mins by agarose gel electrophoresis analysis; assay type: nucleic-acid assay
DNA [36] = assay: Induction of Escherichia coli supercoiled pUC19 plasmid DNA cleavage assessed as decrease in supercoiled form of plasmid at 25 uM incubated for 60 mins by agarose gel electrophoresis analysis; assay type: nucleic-acid assay

For `c1ccc(-c2cn(-c3ccc(-c4cc(-c5ccccn5)nc(-c5ccccn5)c4)cc3)nn2)nc1`, the IC50 (MCF7 [1]) was 407 nM, the IC50 (HCT-116) was 243 nM and the IC50 (U-251) was 855 nM. The Activity (PANC-1 [2]) was “Dose-dependent effect”, the Activity (PANC-1 [3]) was 55.1% and the Activity (PANC-1 [4]) was 7.3%. For the same molecule, the Activity (PANC-1 [5]) was 35.25%, the Activity (PANC-1 [6]) was 58.75% and the Activity (PANC-1 [7]) was 6.9%. It also gave an Activity (PANC-1 [8]) of 31%, an Activity (MCF7 [9]) of 55.97% and an Activity (MCF7 [10]) of 12.1%. The Activity (MCF7 [11]) was 22.4%, the Activity (MCF7 [12]) was 10% and the Activity (MCF7 [13]) was 22%. For the same molecule, the Activity (PANC-1 [14]) was “Dose-dependent effect”, the Activity (MCF7 [15]) was “Dose-dependent effect” and the viability at 5 µM (PANC-1 [16]) was 48.8%. For the same molecule, the Activity (PANC-1 [17]) was 41.4%, the viability at 7.5 µM (PANC-1 [18]) was 39% and the Activity (PANC-1 [19]) was 4.55%. It also gave an Activity (PANC-1 [20]) of 1.8%, a viability at 5 µM (MCF7 [21]) of 67.1% and an Activity (MCF7 [22]) of 10.6%. For the same molecule, the Activity (MCF7 [23]) was 10.9%, the viability at 7.5 µM (MCF7 [24]) was 50.2% and the Activity (MCF7 [25]) was 17.45%. The Activity (MCF7 [26]) was 4.15%, the Activity (MCF7 [27]) was greater than 150% and the Activity (PANC-1 [28]) was “Active”. The Activity (PANC-1 [29]) was “Active”, the Activity (MCF7 [30]) was “Active” and the Activity (PANC-1 [31]) was “inactive”. The Activity (MCF7 [32]) was “inactive”, the “fold change (FC)” value [33] was 45 and the “fold change (FC)” value [34] was 30. For the same molecule, the Activity (DNA [35]) was “Active” and the Activity (DNA [36]) was “Active”.
